Assay results as given in patent US12502369B2, “Methods of cancer treatment” (K-GEN, INC., priority 2015, dated 2025).
Like-named read-outs stand apart in the source and are kept apart here.

Legend:
H727 = test: Proliferation assay (CellTiter Glo), H727; format: cell-based; settings: for Top inhibition %: 96 hours
Protocol: (§1) Briefly, cells at a density of 1,000-10,000 cells/well were seeded in 96-well plates and incubated at 37′C for 24 hours. A series of 9 different concentrations of compound stocks (500×) were created by 3-fold serial dilution in DMSO. These compounds were further diluted in culture media and then added to cells so that the final DMSO concentration was 0.2%. After 96 hours of incubation, 50 μL of CellTiter Glo reagent (Promega) was added to each well and luminescence was measured after 10 minutes using EnVision (PerkinElmer). […] The dose range for most compounds was 4.6 nM-30 μM. The dose ranges for some compounds were adjusted downward to 0.46 nM-3 μM or 0.08 nM-0.5 μM or 0.03 nM-0.2 μM. Luminescence from cells treated with […] alone was set as Max and % of inhibition was calculated as follows: Inhibition %=(Max-Sample value)/Max*100. Data was analyzed using XL-fit software (ID Business Solutions Ltd.) and EC50, relative EC50, and % of top inhibition were calculated. The results are shown in Tables 3-6 for pancreatic cancer, lung cancer, colon/gastric cancer, and leukemia cell lines.

Capan-1 = test: Proliferation assay (CellTiter Glo), Capan-1; format: cell-based; settings: for Top inhibition %: 96 hours
Protocol: as §1

H1915 = test: Proliferation assay (CellTiter Glo), H1915; format: cell-based; settings: H1915 (WT K-ras)
Protocol: as §1, with “calculated.” for “calculated. The results are shown in Tables 3-6 for pancreatic cancer, lung cancer, colon/gastric cancer, and leukemia cell lines.”
Other cancer cell lines having wild-type K-ras status and K-ras mutation at G12 were also screened using the PKC activator compounds. […] K-104 was tested in a range of 0.03 nM-0.2 μM. […] The dose ranges were adjusted downward to 0.46 nM-3 μM for K-102 and 0.08 nM-0.5 μM for K-103 for some cell lines.

AGS = test: Proliferation assay (CellTiter Glo), AGS; format: cell-based; settings: for Top inhibition %: 96 hours
Protocol: as §1

[1] = tested on: PKCδ, PKCμ, c-Raf in MBT-2; test: Activation of PKC isoforms in bladder cancer line MBT-2, Western blot; format: cell-based, mouse
MBT-2 = test: Anti-cell proliferative effects, MBT-2; format: cell-based, mouse
MH22A = test: Anti-cell proliferative effects, MH22A; format: cell-based, mouse
KP-4 = test: Proliferation assay (CellTiter Glo), KP-4; format: cell-based; settings: for Top inhibition %: 96 hours
Protocol: as §1

Panc2.13 = test: Proliferation assay (CellTiter Glo), Panc2.13; format: cell-based; settings: for Top inhibition %: 96 hours
Protocol: as §1

MiaPaCa-2 = test: Proliferation assay (CellTiter Glo), MiaPaCa-2; format: cell-based; settings: for Top inhibition %: 96 hours
Protocol: as §1, with “calculated.” for “calculated. The results are shown in Tables 3-6 for pancreatic cancer, lung cancer, colon/gastric cancer, and leukemia cell lines.”

AsPC-1 = test: Proliferation assay (CellTiter Glo), AsPC-1; format: cell-based; settings: for Top inhibition %: 96 hours
Protocol: as §1

[2] = tested on: PKCδ, PKCμ, c-Raf in MH22A; test: Activation of PKC isoforms in hepatoma cell line MH22A, Western blot; format: cell-based, mouse
H441 = test: Proliferation assay (CellTiter Glo), H441; format: cell-based; settings: for Top inhibition %: 96 hours
Protocol: as §1

[3] = tested on: leukemia inhibitory factor (LIF); test: Western blot of LIF in A549 cells; format: cell-based; settings: for protein levels of the leukemia inhibitory factor (LIF): Western blot, concentrations of Table 8, 48 hours
Protocol: Cancer cells (2-8 million cells) were seeded in 10 cm dishes and grown overnight. For A549 lung cancer cell line, about 3 million cells were seeded. Cells were then treated with different drugs at indicated concentrations (see Table 8) for a period of time up to 48 hours. Cells were lysed in 0.3-0.5 mL of RIPA buffer (Sigma) supplemented with protease inhibitors (Roche) and phosphatase inhibitors (Sigma). Lysates were assayed for protein concentration using BCA kit (Pierce). Normalized amount of lysates (20-30 μg protein/lane) were run on 4-12% NuPage gel (Life Technologies) and the proteins were transferred to the PVDF or nitrocellulose membrane using iBlot® Transfer Stack (Life Technologies). The membranes were probed with primary antibodies shown in Table 8 at 4° C. overnight after blocking with 1×TBST containing 5% non-fat milk. Antibodies from other vendors could also be used in Western blot analysis. After washing 5 times with 1×TBS containing 0.1% Tween20, the membranes were probed with 2nd antibodies Anti-mouse IgG Dylight 800 conjugate or Anti-rabbit IgG DyLight 680 conjugate (1:10000; Cell signaling or similar IR 2nd antibodies from different vendors) at room temperature for one hour. After washing 5 times, the membranes were scanned using Odyssey® Imaging System (Licor Biosciences).

HL60 = test: Proliferation assay (CellTiter Glo), HL60; format: cell-based; settings: for Top inhibition %: 96 hours
Protocol: as §1

[4] = tested on: PKC isoforms in Panc2.13 cells; test: Time course of activation of PKC isoforms in Panc2.13; format: cell-based; settings: extended periods (16 h and 24 h)
Protocol: Cells of pancreatic cancer cell line Panc2.13 were seeded as described above, and the cell confluence was between 40-80% the next day. […] Phosphorylation at multiple PKC isoforms, such as Ser744/748 or Ser916 for PKCμ, phosphorylation at Thr638/641 for PKCα/β, phosphorylation at Ser660 for PKCβII (pan-PKC), phosphorylation at Ser643/676 for PKCδ/θ, and phosphorylation at Thr505 for PKCδ, were detected.

A549 = test: Proliferation assay (CellTiter Glo), A549; format: cell-based; settings: for Top inhibition %: 96 hours
Protocol: as §1

[5] = Homo sapiens, absolute EC50, 96 hours, read-out: Ab EC50
[6] = Homo sapiens, relative EC50, 96 hours, read-out: Re EC50
[7] = absolute EC50, 96 hours, read-out: Ab EC50
[8] = relative EC50, 96 hours, read-out: Re EC50

CC(=O)O[C@@]12C[C@@H](C)[C@]3(O)C4C=C(C)C(=O)[C@@]4(O)CC(CO)=C[C@H]3[C@@H]1C2(C)C (stereo partly drawn) [Compound K-101A, Prostratin] was tested, and the Top inhibition % (H727) was 48.3%, the EC50 (H727; Homo sapiens, NCI-H727, absolute EC50, 96 hours, read-out: Ab EC50) was over 30000 nM and the EC50 (H727; Homo sapiens, NCI-H727, relative EC50, 96 hours, read-out: Re EC50) was 190 nM. For the same compound, the Top inhibition % (Capan-1) was 37.1%, the EC50 (Capan-1; [5]) was over 30000 nM and the EC50 (Capan-1; [6]) was 310 nM. For the same compound, the “Top inhibition %” value (H1915) was 27.7%, the Top inhibition % (AGS) was 21.7% and the EC50 (AGS; [5]) was over 30 µM. The EC50 (AGS; [6]) was 0.49 µM, the “phosphorylations of PKCδ at Thr505, PKCμ at Ser744/748, PKCμ at Ser916, c-Raf at Ser338” value [1] was “induced phosphorylations” and the “sensitivity to anti-cell proliferative effects” value (“sensitivity” for short) (MBT-2) was “sensitive”. The “sensitivity” value (MH22A) was “insensitive”, the Top inhibition % (KP-4) was 63.3% and the EC50 (KP-4; [5]) was 400 nM. It also gave an EC50 (KP-4; [6]) of 190 nM, a Top inhibition % (Panc2.13) of 43.4% and an EC50 (Panc2.13; [7]) of over 30000 nM. For the same compound, the EC50 (Panc2.13; [8]) was 17 nM, the Top inhibition % (MiaPaCa-2) was 74.4% and the EC50 (MiaPaCa-2; Homo sapiens, MIA PaCa-2, absolute EC50, 96 hours, read-out: Ab EC50) was 300 nM. For the same compound, the EC50 (MiaPaCa-2; Homo sapiens, MIA PaCa-2, relative EC50, 96 hours, read-out: Re EC50) was 180 nM, the Top inhibition % (AsPC-1) was 32.4% and the EC50 (AsPC-1; Homo sapiens, ASPC1, absolute EC50, 96 hours, read-out: Ab EC50) was over 30000 nM. For the same compound, the EC50 (AsPC-1; Homo sapiens, ASPC1, relative EC50, 96 hours, read-out: Re EC50) was 270 nM, the “phosphorylation of PKCδ at Thr505, PKCμ at Ser744/748, PKCμ at Ser916, c-Raf at Ser338” value [2] was “did not induce further phosphorylation” and the Top inhibition % (H441) was 42.1%. For the same compound, the EC50 (H441; Homo sapiens, NCI-H441, absolute EC50, 96 hours, read-out: Ab EC50) was over 30000 nM, the EC50 (H441; Homo sapiens, NCI-H441, relative EC50, 96 hours, read-out: Re EC50) was 320 nM and the LIF protein level ([3]; 0.5 uM of K-101A) was “lowered”. For the same compound, the “protein levels of the leukemia inhibitory factor (LIF)” value [3] was “dose-dependent reduction”, the Top inhibition % (HL60) was 61.3% and the EC50 (HL60; Homo sapiens, HL-60, absolute EC50, 96 hours, read-out: Ab EC50) was 470 nM. The EC50 (HL60; Homo sapiens, HL-60, relative EC50, 96 hours, read-out: Re EC50) was 400 nM, the “reducing the phosphorylation at Ser643/676 of PKCδ/θ” value ([4]; K101A 1 μM versus K102, K103) was “more potent” and the Top inhibition % (A549) was 76.0%. For the same compound, the EC50 (A549; [5]) was 490 nM and the EC50 (A549; [6]) was 270 nM.
CC(=O)OCC1=C[C@H]2[C@@H]3C(C)(C)[C@]3(OC(C)=O)C[C@@H](C)[C@]2(O)C2C=C(C)C(=O)[C@@]2(O)C1 (stereo partly drawn) [Compound K-101E] gave a Top inhibition % (H727) of 49.1%, an EC50 (H727; [7]) of over 30000 nM and an EC50 (H727; [8]) of 620 nM. For the same compound, the Top inhibition % (Capan-1) was 44.6%, the EC50 (Capan-1; [7]) was over 30000 nM and the EC50 (Capan-1; [8]) was 830 nM. The “Top inhibition %” value (H1915) was 35.6%, the Top inhibition % (AGS) was 25.9% and the EC50 (AGS; [7]) was over 30 µM. The EC50 (AGS; [8]) was 4.38 µM, the Top inhibition % (KP-4) was 69.1% and the EC50 (KP-4; [7]) was 1280 nM. It also gave an EC50 (KP-4; [8]) of 680 nM, a Top inhibition % (Panc2.13) of 49.8% and an EC50 (Panc2.13; [7]) of over 30000 nM. The EC50 (Panc2.13; [8]) was 44 nM, the Top inhibition % (MiaPaCa-2) was 61.4% and the EC50 (MiaPaCa-2; [7]) was 1880 nM. For the same compound, the EC50 (MiaPaCa-2; [8]) was 860 nM, the Top inhibition % (AsPC-1) was 35.2% and the EC50 (AsPC-1; [7]) was over 30000 nM. For the same compound, the EC50 (AsPC-1; [8]) was 2780 nM, the Top inhibition % (H441) was 49.1% and the EC50 (H441; [7]) was over 30000 nM. The EC50 (H441; [8]) was 2610 nM, the “protein levels of the leukemia inhibitory factor (LIF)” value [3] was “did not affect” and the Top inhibition % (HL60) was 63.4%. It also gave an EC50 (HL60; [7]) of 3050 nM, an EC50 (HL60; [8]) of 1920 nM and a Top inhibition % (A549) of 78.7%. It also gave an EC50 (A549; [7]) of 2640 nM and an EC50 (A549; [8]) of 1560 nM.
For C/C=C(/C)C(=O)O[C@H]1C(C)=C[C@]23C(=O)[C@@H](C=C(CO)[C@@H](O)[C@]12O)[C@H]1[C@@H](C[C@H]3C)C1(C)C [Compound K-102, Ingenol-3-angelate, reference compound], the “phosphorylations of PKCδ at Thr505, PKCμ at Ser744/748, PKCμ at Ser916, c-Raf at Ser338” value ([1]; MBT-2, K101A 1 μM, K102 0.1 μM) was “induced phosphorylations”, the “sensitivity” value (MBT-2) was “sensitive” and the “sensitivity” value (MH22A) was “insensitive”. For the same compound, the “phosphorylation of PKCδ at Thr505, PKCμ at Ser744/748, PKCμ at Ser916, c-Raf at Ser338” value ([2]; MH22A, basal levels high, K101A 1 μM, K102 0.1 μM) was “did not induce further phosphorylation” and the “reducing the phosphorylation at βII Ser660 of PKC (pan), to a lesser extent Thr638/641 of PKCα/β” value ([4]; K102 0.1 μM, K103 0.01 μM versus K101A) was “more potent”.
